# Test results taken from PMC6356585 (Viruses, 2018).
# Structures can show the parent of a compound that is named as a salt. Where two headings read alike, the source gives them in different places.
# Columns and labels:
# [1] = tested on: C6/36 cells; format: cell-based, Ae. albopictus
# [2] = tested on: Vero cells; experiment: Cell viability (CellTiter-Glo) of Vero cells; format: cell-based
# [3] = tested on: ZIKV SPH; experiment: Autophagy compound library screen, ZIKV SPH titer (TCID50) in C6/36 cells; format: cell-based, Zika virus; settings: 10 µM compound, MOI 0.1, 96 h, TCID50, ± SEM, three independent trials; for activity at 10 µM: Zika virus, C6/36, read-out: ZIKV SPH Relative Titer in C6/36 Cells
# [4] = 10 µM compound, 96 h, CellTiter-Glo, ± SEM, three independent trials
# [5] = 10 µM compound, 40 h, CellTiter-Glo, ± SEM, three independent trials
Structure (SMILES),C6/36 Viability ([1]; 10 µM),Vero Viability ([2]; 10 µM),activity at 10 µM [3],"C6/36 Viability [1, 4]",also measured
NCCCCNCCCN [Spermidine],70 ± 3% of untreated control,78.0 ± 17% of untreated control,90.2 ± 57.4%,–,–
C[C@H]1CC[C@@]2(OC1)O[C@H]1C[C@H]3[C@@H]4CC[C@@H]5C[C@@H](O[C@@H]6O[C@H](CO)[C@H](O)[C@H](O)[C@H]6O[C@@H]6O[C@H](CO)[C@@H](O)[C@H](O)[C@H]6O)CC[C@]5(C)[C@H]4CC[C@]3(C)[C@H]1[C@@H]2C [Timosaponin A-III],–,38.7 ± 11.9% of untreated control,13 ± 5.2%,67 ± 3.6% of untreated control,–
Cc1ccc(NC(=O)c2ccc(CN3CCN(C)CC3)cc2)cc1Nc1nccc(-c2cccnc2)n1 [Imatinib mesylate],–,–,5.3 ± 2.2%,19 ± 5.4% of untreated control,–
Oc1ccc(-c2nc(-c3ccncc3)c(-c3ccc(F)cc3)[nH]2)cc1 [SB202190],44 ± 7.9% of untreated control,74.3 ± 5.2% of untreated control,25.9 ± 7.4%,–,–
O=CC[C@@H](O)[C@H](O)[C@H](O)CO [2-Deoxyglucose],–,98.7 ± 0.9% of untreated control,109 ± 61.2%,73 ± 1% of untreated control,–
Cn1nnc2c(C(N)=O)ncn2c1=O [Temozolomide],113 ± 9.2% of untreated control,104.7 ± 1.9% of untreated control,219 ± 49.8%,–,–
C[C@H]1CCC/C=C/[C@@H]2C[C@H](O)C[C@H]2[C@H](O)/C=C/C(=O)O1 [Brefeldin A],–,–,124 ± 25%,–,"C6/36 Viability ([1]; 10 µM compound, 96 h, CellTiter-Glo, ± SEM, three independent trials, 10 µM): 91 ± 8.4% of untreated control; C6/36 Viability ([1]; 10 µM compound, 96 h, CellTiter-Glo, ± SEM, three independent trials, listed as brefeldin A, 10 µM): did not alter viral titers or cell viability; Vero Viability ([2]; 10 µM compound, 40 h, CellTiter-Glo, ± SEM, three independent trials, 10 µM): 17.0 ± 2.1% of untreated control; Vero Viability ([2]; 10 µM compound, 40 h, CellTiter-Glo, ± SEM, three independent trials, listed as brefeldin A, 10 µM): toxic; ZIKV SPH Relative Titer in C6/36 Cells [3]: did not alter viral titers"
COc1cc(CNC(=O)CCCC/C=C/C(C)C)ccc1O [Capsaicin],–,–,48.1 ± 12%,66 ± 7.2% of untreated control,"Vero Viability [2, 5]: 91.7 ± 2.4% of untreated control"
C=C(C)[C@H]1Cc2c(ccc3c2O[C@@H]2COc4cc(OC)c(OC)cc4[C@@H]2C3=O)O1 [Rotenone],–,–,0.1 ± 0.1%,17 ± 5.8% of untreated control,"Vero Viability [2, 5]: 61.3 ± 7.7% of untreated control"
Clc1cccc(Cl)c1N=C1NCCN1 [Clonidine·HCl],69 ± 5.4% of untreated control,97.7 ± 2.6% of untreated control,95.9 ± 53.4%,–,–
CCN(CC)CCNC(=O)c1c(C)[nH]c(/C=C2\C(=O)Nc3ccc(Cl)cc32)c1C [SU11652],1 ± 0% of untreated control,1.0 ± 0% of untreated control,0%,–,–
COCCOC(=O)C1=C(C)NC(C)=C(C(=O)OC(C)C)C1c1cccc([N+](=O)[O-])c1 (centres unmarked) [Nimodipine],–,92.0 ± 1.5% of untreated control,26.9 ± 13.6%,41 ± 8.4% of untreated control,–
CC/C(=C(\c1ccccc1)c1ccc(OCCN(C)C)cc1)c1ccccc1 [Tamoxifen citrate],–,60.7 ± 18.4% of untreated control,8.2 ± 7.3%,32 ± 11.9% of untreated control,–
Oc1c2ccccc2c2c3c(cccc13)N=N2 [SP600125],132 ± 9% of untreated control,66.0 ± 2.1% of untreated control,50.3 ± 19.8%,–,–
Oc1cccc(-c2nc(N3CCOCC3)c3oc4ncccc4c3n2)c1 [PI-103],39 ± 8.9% of untreated control,43.7 ± 6.4% of untreated control,46.2 ± 13.3%,–,–
Oc1ccc(/C=C/c2cc(O)cc(O)c2)cc1 [Resveratrol],–,87.3 ± 2.3% of untreated control,155 ± 62%,81 ± 7.5% of untreated control,–
Cn1cnc(N)c2ncnc1-2 [3-Methyladenine],–,90.7 ± 1.8% of untreated control,155 ± 41%,120 ± 15.6% of untreated control,–
C[C@@H]1C[C@@H]([C@H](O)CC2CC(=O)NC(=O)C2)C(=O)[C@@H](C)C1 [Cycloheximide],–,–,0%,24 ± 3.5% of untreated control,"Vero Viability [2, 5]: 37.3 ± 6.2% of untreated control"
COc1ccc(C2CNC(=O)C2)cc1OC1CCCC1 (centres unmarked) [Rolipram],127 ± 12.1% of untreated control,91.0 ± 3.2% of untreated control,215 ± 74.8%,–,–
COc1ccc(CCN(C)CCCC(C#N)(c2ccc(OC)c(OC)c2)C(C)C)cc1OC (centres unmarked) [Verapamil·HCl],–,–,89 ± 40.8%,71 ± 2.9% of untreated control,"Vero Viability [2, 5]: 87.7 ± 0.9% of untreated control"
